Bridge positions count the residues as written; N and C are the ends. Peptide text beside a SMILES is read from it.

For assay [1] the following is noted: literature values; cited from earlier work.
Assay [2] relates to serum calcium concentration.
Procedure: Rats were divided into four groups of seven animals, and each group was assigned at random to a dose of standard or test solution. Low and high doses were chosen from the linear portion of the dose-responsive curve. For the salmon calcitonin standard, the values were 0.7 and 2.1 mcg. peptide/100 g. body weight (BW). This dose approximates 3 and 9 MU/100 g. BW. Peptides were given by subcutaneous injection (0.2 ml/100 g. BW) and blood was withdrawn 1 hour later for serum calcium determination. Sera are processed and analyzed within two hours of collection. Results were analyzed within two hours of collection.

“(1,7-α-L-amino-suberic acid)eel calcitonin”: the hypocalcemic potency entry in assay [1] is on record as “about 3400 Iu/mg”. As for `CC(C)C[C@H](NC(=O)[C@H](CCCCN)NC(=O)CNC(=O)[C@H](CC(C)C)NC(=O)[C@@H](NC(=O)[C@@H]1CSSC[C@H](N)C(=O)N[C@@H](CO)C(=O)N[C@@H](CC(N)=O)C(=O)N[C@@H](CC(C)C)C(=O)N[C@@H](CO)C(=O)N[C@@H]([C@@H](C)O)C(=O)N1)C(C)C)C(=O)N[C@@H](CO)C(=O)N[C@@H](CCC(N)=O)C(=O)N[C@@H](CCC(=O)O)C(=O)N[C@@H](CC(C)C)C(=O)N[C@@H](Cc1c[nH]cn1)C(=O)N[C@@H](CCCCN)C(=O)N[C@@H](CC(C)C)C(=O)N[C@@H](CCC(N)=O)C(=O)N[C@H](C(=O)N[C@@H](Cc1ccc(O)cc1)C(=O)N1CCC[C@H]1C(=O)N[C@@H](CCCNC(=N)N)C(=O)N[C@H](C(=O)N[C@@H](CC(N)=O)C(=O)N[C@H](C(=O)NCC(=O)N[C@@H](CO)C(=O)NCC(=O)N[C@H](C(=O)N1CCC[C@H]1C(N)=O)[C@@H](C)O)[C@@H](C)O)[C@@H](C)O)[C@@H](C)O` [standard salmon calcitonin, Salmon calcitonin], the “potency content of the standard” value in assay [2] (standard used in the assay, independently determined) is given as “greater than 4,000 IU/mg”. With `CC(C)C[C@H](NC(=O)[C@H](CCCCN)NC(=O)CNC(=O)[C@H](CC(C)C)NC(=O)[C@@H](NC(=O)[C@@H]1CSSC[C@H](N)C(=O)N[C@@H](CO)C(=O)N[C@@H](CC(N)=O)C(=O)N[C@@H](CC(C)C)C(=O)N[C@@H](CO)C(=O)N[C@@H]([C@@H](C)O)C(=O)N1)C(C)C)C(=O)N[C@@H](CO)C(=O)N[C@@H](CCC(N)=O)C(=O)N[C@@H](CCC(=O)O)C(=O)N[C@@H](C)C(=O)N[C@@H](Cc1c[nH]cn1)C(=O)N[C@@H](CCCCN)C(=O)N[C@@H](C)C(=O)N[C@@H](CCC(N)=O)C(=O)N[C@H](C(=O)N[C@@H](Cc1ccc(O)cc1)C(=O)N1CCC[C@H]1C(=O)N[C@@H](CCCNC(=N)N)C(=O)N[C@H](C(=O)N[C@@H](CC(N)=O)C(=O)N[C@H](C(=O)NCC(=O)N[C@@H](CO)C(=O)NCC(=O)N[C@H](C(=O)N1CCC[C@H]1C(N)=O)[C@@H](C)O)[C@@H](C)O)[C@@H](C)O)[C@@H](C)O` [[Di-Ala^16,19]SCT, [16,19-Di-Alanine]salmon calcitonin] (H-CSNLSTCVLGKLSQEAHKAQTYPRTNTGSGTP-NH2; disulfide 1-7), the biological potency in assay [2] (rat, in vivo, sc) is on record as 7200 IU/mg.

The record behind these values is patent US4639509A, “[16,19-Di-alanine] calcitonin” (Armour Pharmaceutical Company, priority 1985, dated 1987).
